The target in test [1] is T1, Alpha-1A adrenergic receptor (Homo sapiens, UniProt P35348).
T1 sequence (P35348 whole entry): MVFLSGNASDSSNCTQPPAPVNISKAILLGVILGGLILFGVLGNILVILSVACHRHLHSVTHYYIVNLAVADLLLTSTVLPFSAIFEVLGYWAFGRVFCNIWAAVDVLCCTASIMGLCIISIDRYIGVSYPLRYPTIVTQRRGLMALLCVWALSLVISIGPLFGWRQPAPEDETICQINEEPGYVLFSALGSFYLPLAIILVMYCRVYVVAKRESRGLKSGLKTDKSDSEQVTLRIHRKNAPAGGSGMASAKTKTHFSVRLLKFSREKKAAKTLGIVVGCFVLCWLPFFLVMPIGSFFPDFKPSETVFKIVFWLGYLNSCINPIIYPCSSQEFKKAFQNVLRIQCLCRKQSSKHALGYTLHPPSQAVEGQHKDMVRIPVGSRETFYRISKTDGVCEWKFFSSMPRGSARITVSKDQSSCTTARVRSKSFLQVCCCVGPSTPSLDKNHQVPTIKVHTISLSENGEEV
The class given is functional, cell-based.

The next test deals with D(1A) dopamine receptor (Homo sapiens, UniProt P21728). The class given is functional, cell-based.
Test [2] has as its target T2, Muscarinic acetylcholine receptor M1 (Homo sapiens, UniProt P11229).
T2 sequence (P11229 whole entry): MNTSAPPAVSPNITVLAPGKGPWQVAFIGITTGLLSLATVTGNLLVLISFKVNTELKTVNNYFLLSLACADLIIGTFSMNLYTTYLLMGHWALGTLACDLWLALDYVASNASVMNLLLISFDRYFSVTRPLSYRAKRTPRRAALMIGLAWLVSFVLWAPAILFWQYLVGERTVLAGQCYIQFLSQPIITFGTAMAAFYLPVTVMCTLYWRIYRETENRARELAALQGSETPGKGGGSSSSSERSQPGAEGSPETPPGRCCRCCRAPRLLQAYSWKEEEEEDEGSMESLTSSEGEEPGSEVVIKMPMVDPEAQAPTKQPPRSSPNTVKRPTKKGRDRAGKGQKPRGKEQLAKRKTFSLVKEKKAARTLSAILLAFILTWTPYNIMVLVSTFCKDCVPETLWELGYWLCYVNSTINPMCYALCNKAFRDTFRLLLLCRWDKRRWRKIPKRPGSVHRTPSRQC
Format: functional, cell-based.

Test [3] addresses T2, Muscarinic acetylcholine receptor M1. The class given is functional, cell-based. The source holds these as a separate data set.
The target in the next test is T3, Glucocorticoid receptor (Homo sapiens, UniProt P04150).
T3 sequence (P04150 whole entry): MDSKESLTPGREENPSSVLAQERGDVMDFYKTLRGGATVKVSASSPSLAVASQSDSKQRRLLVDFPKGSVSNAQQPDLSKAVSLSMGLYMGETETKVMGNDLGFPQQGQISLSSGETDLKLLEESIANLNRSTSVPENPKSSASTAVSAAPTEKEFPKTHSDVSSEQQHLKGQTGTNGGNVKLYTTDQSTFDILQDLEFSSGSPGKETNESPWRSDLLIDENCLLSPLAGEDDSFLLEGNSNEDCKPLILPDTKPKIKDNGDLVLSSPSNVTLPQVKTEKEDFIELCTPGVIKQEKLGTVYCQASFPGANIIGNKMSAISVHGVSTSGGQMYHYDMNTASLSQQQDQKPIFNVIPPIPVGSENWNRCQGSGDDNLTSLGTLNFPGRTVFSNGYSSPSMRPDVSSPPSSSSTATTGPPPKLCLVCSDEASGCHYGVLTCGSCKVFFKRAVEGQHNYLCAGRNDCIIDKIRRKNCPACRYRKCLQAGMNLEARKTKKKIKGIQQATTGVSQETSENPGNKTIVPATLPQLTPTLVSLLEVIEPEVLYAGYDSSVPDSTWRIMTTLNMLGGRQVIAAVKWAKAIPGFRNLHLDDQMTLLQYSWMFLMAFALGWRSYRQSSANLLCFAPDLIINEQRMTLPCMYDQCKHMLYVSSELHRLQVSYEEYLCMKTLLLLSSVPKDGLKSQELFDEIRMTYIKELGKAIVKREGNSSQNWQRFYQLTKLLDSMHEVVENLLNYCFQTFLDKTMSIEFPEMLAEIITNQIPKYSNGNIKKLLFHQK
Format: functional.

The target in test [4] is T4, Prostaglandin G/H synthase 1 (Rattus norvegicus, UniProt Q63921).
T4 sequence (Q63921 whole entry): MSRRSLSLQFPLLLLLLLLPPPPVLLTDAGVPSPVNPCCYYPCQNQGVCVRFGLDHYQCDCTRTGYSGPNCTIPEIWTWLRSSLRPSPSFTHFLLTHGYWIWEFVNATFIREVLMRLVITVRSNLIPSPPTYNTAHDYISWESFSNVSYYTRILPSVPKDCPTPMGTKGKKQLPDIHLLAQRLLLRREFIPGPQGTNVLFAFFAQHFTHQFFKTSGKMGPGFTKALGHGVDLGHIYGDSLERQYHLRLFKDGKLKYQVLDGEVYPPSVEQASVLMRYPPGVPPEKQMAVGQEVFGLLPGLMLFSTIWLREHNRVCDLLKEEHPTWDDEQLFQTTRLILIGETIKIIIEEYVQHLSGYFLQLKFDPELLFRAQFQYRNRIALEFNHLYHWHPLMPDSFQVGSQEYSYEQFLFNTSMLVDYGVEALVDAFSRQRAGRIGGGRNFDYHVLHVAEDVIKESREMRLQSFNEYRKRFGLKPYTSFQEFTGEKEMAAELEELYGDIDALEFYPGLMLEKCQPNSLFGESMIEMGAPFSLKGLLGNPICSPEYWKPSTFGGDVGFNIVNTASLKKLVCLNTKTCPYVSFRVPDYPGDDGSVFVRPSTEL
Format: functional.

The target of test [5] is T1, Alpha-1A adrenergic receptor.
Test [6] has as its target Sodium-dependent dopamine transporter (Homo sapiens, UniProt Q01959).
Test [7] concerns the target Synaptic vesicular amine transporter (Rattus norvegicus, UniProt Q01827). The class given is functional.
Test [8] concerns the target T2, Muscarinic acetylcholine receptor M1.
Test [9] deals with T5, Gamma-aminobutyric acid receptor subunit alpha-1/alpha-2/beta-2/gamma-2 (Homo sapiens, UniProt P14867+P47870+P18507+P47869). Format: functional, cell-based.
Test [10] addresses T5, Gamma-aminobutyric acid receptor subunit alpha-1/alpha-2/beta-2/gamma-2. The class given is functional, cell-based. This is another data set of the same source.

AC50 data for ten molecules are collected here from ChEMBL document CHEMBL5291721, “A preclinical secondary pharmacology resource illuminates target-adverse drug reaction associations of marketed drugs” (Nat Commun, 2023).

Bounds are passed on as bounds.
Further: assay procedure not described here.

Sodium-dependent dopamine transporter, sequence (Q01959 whole entry): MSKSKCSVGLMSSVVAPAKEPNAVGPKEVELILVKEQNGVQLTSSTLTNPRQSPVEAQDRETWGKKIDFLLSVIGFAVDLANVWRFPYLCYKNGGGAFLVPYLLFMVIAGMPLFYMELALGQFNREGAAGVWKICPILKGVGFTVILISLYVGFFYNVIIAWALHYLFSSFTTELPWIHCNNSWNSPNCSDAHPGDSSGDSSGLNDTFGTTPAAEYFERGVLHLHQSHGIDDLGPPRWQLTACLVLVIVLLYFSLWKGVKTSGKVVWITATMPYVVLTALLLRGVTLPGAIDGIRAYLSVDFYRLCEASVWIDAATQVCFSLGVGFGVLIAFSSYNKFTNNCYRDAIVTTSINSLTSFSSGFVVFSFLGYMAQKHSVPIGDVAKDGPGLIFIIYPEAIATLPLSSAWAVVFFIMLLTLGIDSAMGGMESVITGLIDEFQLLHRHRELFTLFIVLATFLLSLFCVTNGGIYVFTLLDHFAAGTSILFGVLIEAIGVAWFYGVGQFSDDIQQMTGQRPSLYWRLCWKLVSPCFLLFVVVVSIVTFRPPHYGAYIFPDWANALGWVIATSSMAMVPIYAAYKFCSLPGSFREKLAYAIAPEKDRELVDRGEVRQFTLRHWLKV
D(1A) dopamine receptor, sequence (P21728 whole entry): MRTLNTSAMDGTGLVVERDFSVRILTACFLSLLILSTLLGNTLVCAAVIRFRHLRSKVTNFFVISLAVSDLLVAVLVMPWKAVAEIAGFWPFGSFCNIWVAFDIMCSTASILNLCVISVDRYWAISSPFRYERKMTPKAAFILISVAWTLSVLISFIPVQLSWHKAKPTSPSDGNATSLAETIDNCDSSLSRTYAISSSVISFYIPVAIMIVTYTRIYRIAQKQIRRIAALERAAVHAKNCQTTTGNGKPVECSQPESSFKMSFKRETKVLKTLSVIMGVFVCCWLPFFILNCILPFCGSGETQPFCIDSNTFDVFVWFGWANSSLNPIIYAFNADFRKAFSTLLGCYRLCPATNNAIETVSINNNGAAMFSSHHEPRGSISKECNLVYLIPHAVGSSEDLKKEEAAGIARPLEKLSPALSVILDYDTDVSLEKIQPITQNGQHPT
T5 sequence (P14867 whole entry): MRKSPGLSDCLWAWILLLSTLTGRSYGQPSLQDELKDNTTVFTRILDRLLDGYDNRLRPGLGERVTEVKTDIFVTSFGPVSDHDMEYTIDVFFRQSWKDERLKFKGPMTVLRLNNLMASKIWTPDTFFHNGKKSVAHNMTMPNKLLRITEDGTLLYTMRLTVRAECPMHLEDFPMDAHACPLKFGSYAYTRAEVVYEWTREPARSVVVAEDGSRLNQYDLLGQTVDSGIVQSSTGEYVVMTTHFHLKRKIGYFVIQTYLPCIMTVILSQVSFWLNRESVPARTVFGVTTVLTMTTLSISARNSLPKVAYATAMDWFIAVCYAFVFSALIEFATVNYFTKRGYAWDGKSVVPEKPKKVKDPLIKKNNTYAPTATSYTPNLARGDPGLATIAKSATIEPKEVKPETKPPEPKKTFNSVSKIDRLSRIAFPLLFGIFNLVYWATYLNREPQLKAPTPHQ
T5 sequence (P47870 whole entry): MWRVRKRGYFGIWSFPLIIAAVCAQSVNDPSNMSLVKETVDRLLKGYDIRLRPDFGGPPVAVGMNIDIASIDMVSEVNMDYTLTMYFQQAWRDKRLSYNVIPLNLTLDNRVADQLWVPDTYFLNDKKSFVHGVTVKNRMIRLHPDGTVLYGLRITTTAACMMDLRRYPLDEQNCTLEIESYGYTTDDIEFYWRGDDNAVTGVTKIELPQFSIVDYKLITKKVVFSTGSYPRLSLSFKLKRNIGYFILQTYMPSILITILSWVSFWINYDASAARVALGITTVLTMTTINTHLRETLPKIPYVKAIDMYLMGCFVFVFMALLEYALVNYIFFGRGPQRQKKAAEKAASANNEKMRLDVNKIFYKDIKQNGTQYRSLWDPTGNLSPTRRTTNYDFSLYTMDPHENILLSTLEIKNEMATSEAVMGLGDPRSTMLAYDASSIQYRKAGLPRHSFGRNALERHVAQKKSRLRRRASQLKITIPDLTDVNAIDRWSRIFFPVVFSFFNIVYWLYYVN
T5 sequence (P18507 whole entry): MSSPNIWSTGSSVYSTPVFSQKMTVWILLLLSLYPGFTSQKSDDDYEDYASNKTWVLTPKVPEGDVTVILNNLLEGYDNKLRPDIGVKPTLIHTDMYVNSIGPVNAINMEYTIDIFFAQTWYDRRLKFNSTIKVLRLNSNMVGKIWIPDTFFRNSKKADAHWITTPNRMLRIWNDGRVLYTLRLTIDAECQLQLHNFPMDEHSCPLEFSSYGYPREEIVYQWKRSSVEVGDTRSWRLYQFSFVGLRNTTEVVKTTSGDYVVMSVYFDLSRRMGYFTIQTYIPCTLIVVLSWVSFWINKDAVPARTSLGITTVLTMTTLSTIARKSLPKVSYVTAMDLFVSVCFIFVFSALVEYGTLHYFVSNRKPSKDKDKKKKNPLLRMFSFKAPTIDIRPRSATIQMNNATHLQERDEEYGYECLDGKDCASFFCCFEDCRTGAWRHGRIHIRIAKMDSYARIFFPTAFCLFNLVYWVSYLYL
T5 sequence (P47869 whole entry): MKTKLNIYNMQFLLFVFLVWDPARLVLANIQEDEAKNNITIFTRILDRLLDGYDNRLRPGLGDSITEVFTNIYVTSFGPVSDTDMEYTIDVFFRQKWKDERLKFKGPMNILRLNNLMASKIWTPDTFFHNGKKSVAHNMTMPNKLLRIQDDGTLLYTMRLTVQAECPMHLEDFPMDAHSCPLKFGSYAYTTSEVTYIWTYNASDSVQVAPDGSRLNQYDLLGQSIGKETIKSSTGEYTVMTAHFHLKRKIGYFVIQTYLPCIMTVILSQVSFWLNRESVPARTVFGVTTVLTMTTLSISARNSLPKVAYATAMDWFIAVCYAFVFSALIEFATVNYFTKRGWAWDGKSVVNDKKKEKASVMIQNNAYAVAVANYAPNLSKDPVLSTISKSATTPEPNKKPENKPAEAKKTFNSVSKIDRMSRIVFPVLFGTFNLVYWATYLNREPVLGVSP
Synaptic vesicular amine transporter, sequence (Q01827 whole entry): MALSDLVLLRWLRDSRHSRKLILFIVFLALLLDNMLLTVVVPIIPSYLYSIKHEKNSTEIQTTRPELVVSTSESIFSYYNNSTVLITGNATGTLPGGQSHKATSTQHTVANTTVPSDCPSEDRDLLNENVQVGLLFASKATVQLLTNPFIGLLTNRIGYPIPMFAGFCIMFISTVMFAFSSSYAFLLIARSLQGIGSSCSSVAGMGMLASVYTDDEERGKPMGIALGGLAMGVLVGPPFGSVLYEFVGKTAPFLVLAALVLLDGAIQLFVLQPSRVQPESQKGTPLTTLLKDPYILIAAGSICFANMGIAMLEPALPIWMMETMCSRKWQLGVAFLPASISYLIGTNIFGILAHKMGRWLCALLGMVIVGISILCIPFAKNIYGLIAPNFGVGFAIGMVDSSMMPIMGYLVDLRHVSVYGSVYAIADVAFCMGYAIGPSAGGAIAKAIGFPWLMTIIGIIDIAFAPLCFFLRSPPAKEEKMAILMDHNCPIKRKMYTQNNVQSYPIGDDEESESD

Broadly, the AC50 is the concentration giving half of the maximal activity seen. Higher therefore signals activity only at high concentration. Regarding `NCCCC(O)(P(=O)(O)O)P(=O)(O)O` [ALENDRONIC ACID], in [1], the AC50 is greater than 30 µM.
In the case of `O=C(CCCN1CCC(n2c(O)nc3ccccc32)CC1)c1ccc(F)cc1` [BENPERIDOL], half-maximal activity on D(1A) dopamine receptor (AC50) was put at 7.5 µM. This lies in the single-digit micromolar range.
Take `CCN(CC)C(=O)C1CN2CCc3cc(OC)c(OC)cc3C2CC1OC(C)=O` (configuration not stated) [BENZQUINAMIDE]: the AC50 in test [2] and in test [3] was greater than 30 µM in each case.
Molecule `CC(C)(C)NCC(O)c1cc(Cl)c(N)c(Cl)c1` (configuration not stated) [CLENBUTEROL] registered an AC50 at D(1A) dopamine receptor greater than 30 µM.
`COc1cccc2c1C(=O)c1c(O)c3c(c(O)c1C2=O)C[C@@](O)(C(C)=O)C[C@@H]3O[C@H]1C[C@H](N)[C@H](O)[C@H](C)O1` [DAUNORUBICIN] showed an AC50 on Glucocorticoid receptor greater than 10 µM.
The molecule `COC(=O)N[C@@H](C)CNc1nccc(-c2cn(C(C)C)nc2-c2cc(Cl)cc(NS(C)(=O)=O)c2F)n1` [ENCORAFENIB] had an AC50 in [4] greater than 30 µM.
As to `C[n+]1ccccc1/C=N/O` [PRALIDOXIME], the AC50 in [5] and in [6] was greater than 30 µM throughout.
Regarding `CCCOC(C(=O)OC1CCN(C)CC1)(c1ccccc1)c1ccccc1` [PROPIVERINE], the values for the AC50 in test [2] and in test [3] were greater than 30 µM and 0.59 µM, respectively.
As to `COc1ccc(C(CN(C)C)C2(O)CCCCC2)cc1` (configuration not stated) [VENLAFAXINE], the AC50 in test [7] is greater than 30 µM.
Turning to COLISTIN, the concentration at half-maximal activity (AC50) in test [5] is greater than 30 µM; in test [8], greater than 30 µM; in [9] it was greater than 30 µM; in test [10], greater than 30 µM; in [6], 26.6 µM.
